Tests used:
Assay type in all cases: physicochemical
[1] = Luminescence titration of ligand 43 with europium chloride; details: 383 nm (ligand), 357 nm (complex)
Method: Titration of ligand 43 was also performed by luminescence (FIG. 5), monitoring the europium signal at 612 nm upon photoexcitation of the solution at 340 nm. The ligand solution used for the UV-vis titration of 43 mentioned above was first diluted 1:10 in TBS buffer. Similarly, the 1.299 mM stock europium solution was separately diluted 1:10 with water. […] The 32.99 μL equivalence point gives extinction coefficients of 14,400 M^−1 cm^−1 at 383 nm and 14,200 M^−1 cm^−1 at 357 nm for 43 and 43 Eu respectively. Averaging the values from both UV-vis and luminescence titration experiments of 43 yields extinction coefficients of 13,700 M^−1 cm^−1 at 383 nm and 13,500 M^−1 cm^−1 at 357 nm for 43 and 43 Eu respectively.

[2] = UV-vis titration with europium chloride for extinction coefficients
Method: In order to determine accurate extinction coefficients for 16 and 16·Eu, titration experiments using europium chloride as the titrant were performed. Europium chloride hexahydrate (13.22 mg, 0.03608 mmol) was dissolved into 5 mM citrate buffer (pH=4) using a 100 mL volumetric flask to give a 0.3608 mM europium chloride solution, which was then titrated into a 0.5 mL solution of 16 in TBS buffer (Tris-buffered saline, 50 mM Tris, 150 mM NaCl, pH=7.6) using 5 μL aliquots. The UV-vis spectra were adjusted for the increase in solvent volume due to each injection. The results of the UV-vis titration are plotted in FIG. 3.
The volume of europium chloride corresponds to 16.70 nmol of europium, meaning the starting concentration of ligand 16 was 33.40 μM. […] These absorbance and concentration values yield extinction coefficients of 13,600 M^−1 cm^−1 and 14,300 M^−1 cm^−1 for the ligand 16 and the complex 16·Eu respectively.
In order to determine accurate extinction coefficients for 43 and 43 Eu, titration experiments using europium chloride as the titrant were performed. Europium chloride hexahydrate (47.58 mg, 0.1299 mmol) was dissolved into 50 mM citrate buffer (pH=4) using a 10 mL volumetric flask to give a 12.99 mM europium chloride solution, which was then transferred to a 100 mL volumetric flask and diluted 1:10 with water. The resulting 1.299 mM europium chloride solution (in 5 mM citrate buffer) was then titrated into a 1 mL solution of 43 in TBS buffer using 5 μL aliquots. The UV-vis spectra were adjusted for the increase in solvent volume due to each injection. The results of the UV-vis titration are plotted in FIG. 4.
The volume of europium chloride corresponds to 47.46 nmol of europium, meaning the starting concentration of ligand 43 was 47.46 μM. […] These absorbance and concentration values yield extinction coefficients of 13,000 M^−1 cm^−1 and 12,800 M^−1 cm^−1 for the ligand and complex respectively.

[3] = Photophysical characterization of Eu complexes (UV-vis, luminescence, quantum yield, lifetime); details: TBS buffer, pH 7.6
Method: The europium complexes of ligands 16, 29, 33, 40, and 43 were prepared by separately dissolving each ligand (2 mg) into methanol (200 μL). Excess europium chloride hexahydrate (˜5 equivalents) was dissolved in methanol (200 μL) and the full volume was added to each of the ligand solutions. The solvent was removed, and the residue was dissolved into DMF (50 μL). The europium complexes were then purified by semi-prep HPLC on an Agilent 1260 Infinity instrument using an Eclipse XDB-C18 column (5 μm, 9.4×250 mm). The mobile phase was 10 to 30% acetonitrile in water containing 0.1% trifluoroacetic acid. The volatiles were removed from the HPLC eluents under vacuum, and the residues were separately dissolved into methanol (500 μL) to give methanolic stock solutions of each europium complex with greater than 98% purity. A few drops of these methanolic solutions were evaporated to dryness, and then the residue was dissolved into TBS buffer at a concentration of ca. 3 μM to make aqueous stock solutions (20 mL) with an absorbance of 0.05 (1 cm path length) at 365 nm. […] Quinine sulfate dissolved in 0.05 M sulfuric acid was similarly diluted to a final absorbance of 0.05 at 365 nm, and this solution was similarly (1/6, 2/6, 3/6, 4/6, and 5/6) diluted to afford six quinine sulfate reference samples of evenly spaced concentration. […] By measuring the absorbance and luminescence of these dilute solutions, the quantum yields of the new Eu complexes were determined. A 5 cm path-length quartz cell was used to measure the absorbance of these dilute solutions in order to improve the UV-vis signal-to-noise. Steady state photoluminescence measurements were collected in a 1 cm fluorescence cuvette at 365 nm excitation wavelength, 1 nm resolution, 10 nm excitation slit width, 1 nm emission slit width, and 0.2 sec integration time on an instrument that has been described elsewhere (D'Aleo, A.; Moore, E. G.; Szigethy, G.; Xu, J.; Raymond, K. N. Inorg. Chem. 2009, 48, 9316·). […]

extinction coefficient, average of UV-vis and luminescence titrations [1]: 13,700 M^−1 cm^−1
extinction coefficient ([1]; luminescence titration): 14,400 M^−1 cm^−1
lambda max ([2]; UV-vis titration, TBS buffer): 383 nm
extinction coefficient ([2]; UV-vis titration, at lambda max): 13,000 M^−1 cm^−1
ε at λmax ([2]; measured by europium titration, TBS buffer): 13,700 M^−1cm^−1
ε260/ε at λmax [3]: 1.96
ε280/ε at λmax [3]: 1.27
λmax [3]: 383 nm
SMILES: NCCOCCNC(=O)C1CCCN(C(=O)c2cccc(=O)n2O)CCCNC(=O)c2ccc(n(O)c2=O)C(=O)N[C@@H]2COC[C@@H]2NC(=O)c2ccc(c(=O)n2O)C(=O)NCCCN1C(=O)c1cccc(=O)n1O (some centres unmarked) [Compound 43]

Source: US12440584B2, “Macrocyclic ligands with pendant chelating moieties and complexes thereof” (LUMIPHORE, INC., priority 2018, dated 2025)
